Test results reported in ChEMBL document CHEMBL3046046, “Design, synthesis, and QSAR study of novel 2-(2,3-dioxo-2,3-dihydro-1H-indol-1-yl)-N-phenylacetamide derivatives as cytotoxic agents” (Med Chem Res, 2011).

Legend:
MCF7 [1] = assay: Cytotoxicity against Homo sapiens (human) MCF7 cells assessed as cell survival after 72 hr by XTT assay; format: functional; parameters: concentration or dose not given beside the values
[2] = Cytotoxicity against Chlorocebus aethiops (African green monkey) Vero cells assessed as cell survival after 72 hr by XTT assay; format: cell-based; parameters: concentration or dose not given beside the values; details: chlorocebus sabaeus, read-out: Activity
Vero = assay: Cytotoxicity against Chlorocebus aethiops (African green monkey) Vero cells after 72 hr by XTT assay; format: cell-based; details: Chlorocebus sabaeus
MCF7 [3] = assay: Cytotoxicity against Homo sapiens (human) MCF7 cells after 72 hr by XTT assay; format: functional, cell-based; details: MCF7, 72 h

Structure (SMILES): Cc1ccccc1NC(=O)CN1C(=O)C(=O)c2ccccc21
- Activity (MCF7 [1]): >50%
- viability at 72 h [2]: > 50%

Structure (SMILES): Cc1ccc(NC(=O)CN2C(=O)C(=O)c3cc(Br)cc(Br)c32)cc1
- IC50 (Vero): 25 µM
- IC50 (MCF7 [3]): 2.43 µM

Structure (SMILES): Cc1ccc(NC(=O)CN2C(=O)C(=O)c3ccccc32)cc1
- Activity (MCF7 [1]): >50%
- viability at 72 h [2]: > 50%

Structure (SMILES): O=C(CN1C(=O)C(=O)c2cc(Br)cc(Br)c21)Nc1ccccc1
- IC50 (Vero): 28.1 µM
- IC50 (MCF7 [3]): 3.91 µM

Structure (SMILES): CC[C@]1(O)C[C@@H]2CN(CCc3c([nH]c4ccccc34)[C@@](C(=O)OC)(c3cc4c(cc3OC)N(C)[C@H]3[C@@](O)(C(=O)OC)[C@H](OC(C)=O)[C@]5(CC)C=CCN6CC[C@]43[C@@H]65)C2)C1 [VINBLASTINE]
- IC50 (Vero): 27.1 µM
- IC50 (MCF7 [3]): 1.9 µM

Structure (SMILES): O=C(CN1C(=O)C(=O)c2ccccc21)Nc1ccccc1
- Activity (MCF7 [1]): >50%
- viability at 72 h [2]: > 50%

Structure (SMILES): O=C(CN1C(=O)C(=O)c2ccccc21)Nc1ccccc1[N+](=O)[O-]
- Activity (MCF7 [1]): >50%
- viability at 72 h [2]: > 50%

Structure (SMILES): O=C(CN1C(=O)C(=O)c2cc(Br)cc(Br)c21)Nc1ccc([N+](=O)[O-])cc1
- IC50 (Vero): 38.1 µM
- IC50 (MCF7 [3]): 1.96 µM

Structure (SMILES): Cc1ccccc1NC(=O)CN1C(=O)C(=O)c2cc(Br)cc(Br)c21
- IC50 (Vero): 29.9 µM
- IC50 (MCF7 [3]): 3.85 µM

Structure (SMILES): O=C(CN1C(=O)C(=O)c2cc(Br)cc(Br)c21)Nc1ccccc1[N+](=O)[O-]
- IC50 (Vero): 26 µM
- IC50 (MCF7 [3]): 2.04 µM

Structure (SMILES): O=C(CN1C(=O)C(=O)c2ccccc21)Nc1ccc([N+](=O)[O-])cc1
- Activity (MCF7 [1]): >50%
- viability at 72 h [2]: > 50%
